This note sets out measurements from patent US20230348426A1, “OXOPYRROLIDINE FPR2 AGONISTS” (Bristol-Myers Squibb Company, priority 2020, published 2023).

The target in assay [1] is human FPR2 (Homo sapiens (Human), UniProt P25090). Kind of assay: FPR2 cyclic adenosine monophosphate (cAMP) assay. The assay is classed as cell-based. To be noted: CHO cells overexpressing human FPR2; forskolin 5 µM; inhibition of cAMP production; read-out: hFPR2 cAMP2 EC50. A digest of the protocol: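 CHO cells overexpressing human FPR2 (2,000/well) incubated 30 min at room temperature with compound (0.020 nM–100 µM, 1% DMSO), 5 µM forskolin and 200 µM IBMX.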

The target in assay [2] is human FPR1 (Homo sapiens (Human), UniProt P21462). As to the kind of experiment: FPR1 cyclic adenosine monophosphate (cAMP) assay. To be noted: CHO cells overexpressing human FPR1; forskolin 10 µM; inhibition of cAMP production; read-out: hFPR1 cAMP EC50. The assay is classed as cell-based. The essentials:
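CHO cells overexpressing human FPR1 (4,000 cells/well) stimulated with 10 µM forskolin plus 200 µM IBMX in the presence of compound (0.020 nM–100 µM, 1% DMSO), 30 min at room temperature. Intracellular cAMP measured by HTRF. Inhibition of cAMP production fitted to a 4-parameter logistic equation.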

A value given as a limit tells only on which side of the number the result lay.

Sequence of human FPR1 (P21462 whole entry): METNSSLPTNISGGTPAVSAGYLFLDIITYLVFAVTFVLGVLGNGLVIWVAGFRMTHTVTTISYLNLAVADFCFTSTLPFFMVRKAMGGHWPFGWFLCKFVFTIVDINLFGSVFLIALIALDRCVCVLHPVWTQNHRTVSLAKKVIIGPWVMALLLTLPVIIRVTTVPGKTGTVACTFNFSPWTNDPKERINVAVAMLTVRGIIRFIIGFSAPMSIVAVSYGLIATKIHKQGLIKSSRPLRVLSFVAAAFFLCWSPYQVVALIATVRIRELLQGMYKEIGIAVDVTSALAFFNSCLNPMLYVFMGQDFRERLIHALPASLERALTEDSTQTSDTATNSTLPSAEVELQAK
Sequence of human FPR2 (P25090 whole entry): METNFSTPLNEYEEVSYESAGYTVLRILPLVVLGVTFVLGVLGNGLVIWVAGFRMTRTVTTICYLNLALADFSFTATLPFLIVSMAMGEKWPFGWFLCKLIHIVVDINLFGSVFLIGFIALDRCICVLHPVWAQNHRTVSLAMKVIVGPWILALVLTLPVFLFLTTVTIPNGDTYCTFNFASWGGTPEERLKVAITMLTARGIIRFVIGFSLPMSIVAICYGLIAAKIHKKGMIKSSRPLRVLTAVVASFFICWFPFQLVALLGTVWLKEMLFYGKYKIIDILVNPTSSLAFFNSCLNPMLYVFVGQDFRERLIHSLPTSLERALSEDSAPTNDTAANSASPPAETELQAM

Regarding `COc1ccc([C@@H]2CN(c3c(C)ccn(CCC(F)(F)F)c3=O)C(=O)[C@H]2NC(=O)c2ccc(Cl)cc2)cc1` [Example 594], the EC50 (in general, the concentration giving half of the maximal effect) was 2.4 nM in assay [1] and 1.4 nM in assay [2].
Taken in the same sequence, the figures for `COc1cc(F)c([C@@H]2CN(c3c(C)ccn(CC#N)c3=O)C(=O)[C@H]2NC(=O)c2ccc(OC(F)(F)F)cc2)c(F)c1` [Example 595] were 2.4 nM and 13 nM.
For `COc1cc(F)c([C@@H]2CN(c3cnn4c3OCCC4)C(=O)[C@H]2NC(=O)c2ccc(Cl)cc2)c(F)c1` [Example 596], in that order: 43.7 nM and 860 nM.
Taken in the same sequence, the figures for `COc1cc(F)c([C@@H]2CN(c3cnn4c3OCCC4)C(=O)[C@H]2NC(=O)c2ccc(OC(F)F)cc2)c(F)c1` [Example 597] were 1.5 nM and 210 nM.
As to `COc1cc(F)c([C@@H]2CN(c3cnn4c3OCCC4)C(=O)[C@H]2NC(=O)c2ccc(OC(F)(F)F)cc2)c(F)c1` [Example 598], the figures for the EC50 in assay [1] and in assay [2] were 6.2 nM and 590 nM, respectively.
With `COc1cc(F)c([C@@H]2CN(c3cccn4c(C)nnc34)C(=O)[C@H]2NC(=O)c2ccc(OC(F)F)cc2)c(F)c1` [Example 599], the 50% effective concentration (EC50) in assay [1] amounted to 4.1 nM; in assay [2] it was 40 nM.
For `COc1cc(F)c([C@@H]2CN(c3c(C)ccn(C(F)(F)C(=O)N4CCOCC4)c3=O)C(=O)[C@H]2NC(=O)c2ccc(OC(F)F)cc2)c(F)c1` [Example 600], in that order: 7.8 nM and 170 nM.
On to `COc1cc(F)c([C@@H]2CN(c3c(C)ccn(C4CCNC4)c3=O)C(=O)[C@H]2NC(=O)c2ccc(OC(F)F)cc2)c(F)c1` (some centres unmarked) [Example 601], for which the concentration for a half-maximal effect (EC50) worked out at 2 nM in assay [1] and 170 nM in assay [2].
For the compound `COc1cc(F)c([C@@H]2CN(c3c(C)ccn(C4CCNC4)c3=O)C(=O)[C@H]2NC(=O)c2ccc(OC(F)(F)F)cc2)c(F)c1` (some centres unmarked) [Example 602], the values for the concentration for a half-maximal effect (EC50) in assay [1] and in assay [2] were 3.8 nM and 88 nM, respectively.
`COc1cc(F)c([C@@H]2CN(c3cccn4c(C)nnc34)C(=O)[C@H]2NC(=O)c2ccc(Cl)cc2)c(F)c1` [Example 603]: the EC50 in assay [1] was found to be 3.9 nM; in assay [2], 56 nM.
`COc1cc(F)c([C@@H]2CN(c3cccn4c(C)nnc34)C(=O)[C@H]2NC(=O)c2ccc(OC(F)(F)F)cc2)c(F)c1` [Example 604]: the EC50 in assay [1] was determined as 0.5 nM; in assay [2], 15 nM.
Take `COc1cc(F)c([C@@H]2CN(c3c(C)c4c(n(CCO)c3=O)CCCC4)C(=O)[C@H]2NC(=O)c2ccc(OC(F)F)cc2)c(F)c1` [Example 605]: the EC50 in assay [1] is less than 5 nM; in assay [2] it was 1.9 nM.
Turning to `COc1cc(F)c([C@@H]2CN(c3c(C)c4c(n(CCO)c3=O)CCCC4)C(=O)[C@H]2NC(=O)c2ccc(OC(F)(F)F)cc2)c(F)c1` [Example 606], the EC50 in assay [1] is 20 nM; in assay [2] it was 53 nM.
Consider `COc1cc(F)c([C@@H]2CN(c3c(C)c4c(n(CCO)c3=O)CCCC4)C(=O)[C@H]2NC(=O)c2ccc(Cl)cc2)c(F)c1` [Example 607], for which the results for the EC50 in assay [1] and in assay [2] were 13.3 nM and 30 nM, respectively.
Take `O=C(N[C@@H]1C(=O)N(c2cccn(CC(O)C(F)(F)F)c2=O)C[C@H]1c1ccc(Cl)cc1)c1ccc(OC(F)(F)F)cc1` (some centres unmarked) [Example 608]: the concentration giving a half-maximal response (EC50) in assay [1] came out at 4.1 nM; in assay [2], 4.2 nM.
With `O=C(N[C@@H]1C(=O)N(c2cccn(CC(O)C(F)(F)F)c2=O)C[C@H]1c1ccc(Cl)cc1)c1ccc(OC(F)(F)F)cc1` (some centres unmarked) [Example 609], the values for the EC50 in assay [1] and in assay [2] were 1.8 nM and 28 nM, respectively.
Turning to `COc1ccc([C@@H]2CN(c3c(C)ccn(CC4CC4)c3=O)C(=O)[C@H]2NC(=O)c2ccc(OC(F)F)cc2)cc1` [Example 610], the results for the EC50 in assay [1] and in assay [2] were 1 nM and 0.3 nM, respectively.
For `COc1cc(F)c([C@@H]2CN(c3c(C)ccn(CCC(F)(F)F)c3=O)C(=O)[C@H]2NC(=O)c2ccc(Cl)cc2)c(F)c1` [Example 611], in that order: 2.4 nM and 5.9 nM.
With `COc1cc(F)c([C@@H]2CN(c3c(C)ccn(C4CCNC4)c3=O)C(=O)[C@H]2NC(=O)c2ccc(OC(F)F)cc2)c(F)c1` (some centres unmarked) [Example 612], the values for the EC50 in assay [1] and in assay [2] were 13.5 nM and 33 nM, respectively.
In the case of `COc1cc(F)c([C@@H]2CN(c3c(C)ccn(C4CCNC4)c3=O)C(=O)[C@H]2NC(=O)c2ccc(OC(F)(F)F)cc2)c(F)c1` (some centres unmarked) [Example 613], the EC50 in assay [1] is 11.8 nM; in assay [2], 9.3 nM.
Turning to `COc1cc(F)c([C@@H]2CN(c3c(C)ccn(CC4CCO4)c3=O)C(=O)[C@H]2NC(=O)c2ccc(Cl)cc2)c(F)c1` (some centres unmarked) [Example 614], the values for the EC50 in assay [1] and in assay [2] were 6 nM and 33 nM, respectively.
As to `COc1cc(F)c([C@@H]2CN(c3c(C)ccn(CC4CCO4)c3=O)C(=O)[C@H]2NC(=O)c2ccc(OC(F)(F)F)cc2)c(F)c1` (some centres unmarked) [Example 615], the 50% effective concentration (EC50) in assay [1] worked out at 8.7 nM; in assay [2], 5.3 nM.
On to `COc1cc(F)c([C@@H]2CN(c3c(C)ccn(CC4CCO4)c3=O)C(=O)[C@H]2NC(=O)c2ccc(OC(F)F)cc2)c(F)c1` (some centres unmarked) [Example 616], for which the EC50 was 9.4 nM in assay [1] and 20 nM in assay [2].
Taken in the same sequence, the figures for `COc1cc(F)c([C@@H]2CN(c3c(C)ccn(CC4CCO4)c3=O)C(=O)[C@H]2NC(=O)c2ccc(OC(F)F)cc2)c(F)c1` (some centres unmarked) [Example 617] were 9.1 nM and 18 nM.
On to `COc1cc(F)c([C@@H]2CN(c3c(C)ccn(CC4CCO4)c3=O)C(=O)[C@H]2NC(=O)c2ccc(Cl)cc2)c(F)c1` (some centres unmarked) [Example 618], for which the half-maximal effective concentration (EC50) was 1 nM in assay [1] and 9.5 nM in assay [2].
With `COc1cc(F)c([C@@H]2CN(c3c(C)ccn(CC4CNC(=O)O4)c3=O)C(=O)[C@H]2NC(=O)c2ccc(OC(F)F)cc2)c(F)c1` (some centres unmarked) [Example 619], the results for the half-maximal effective concentration (EC50) in assay [1] and in assay [2] were 9.4 nM and 64 nM, respectively.
In the case of `COc1ccc([C@@H]2CN(c3ccnn(CC(F)F)c3=O)C(=O)[C@H]2NC(=O)c2ccc(OC(F)F)cc2)c(F)c1` [Example 620], the EC50 in assay [1] worked out at 7.4 nM; in assay [2] it was 6.5 nM.
Taken in the same sequence, the figures for `COc1cc(F)c([C@@H]2CN(c3c(C)ccn([C@H]4COC[C@@H]4O)c3=O)C(=O)[C@H]2NC(=O)c2ccc(Cl)cc2)c(F)c1` [Example 621] were 90 nM and 64 nM.
Taken in the same sequence, the figures for `COc1cc(F)c([C@@H]2CN(c3c(C)ccn([C@H]4COC[C@@H]4O)c3=O)C(=O)[C@H]2NC(=O)c2ccc(OC(F)(F)F)cc2)c(F)c1` [Example 622] were 8.4 nM and 2.2 nM.
With `COc1cc(F)c([C@@H]2CN(c3c(C)ccn([C@H]4COC[C@@H]4O)c3=O)C(=O)[C@H]2NC(=O)c2ccc(Cl)cc2)c(F)c1` [Example 623], the EC50 in assay [1] amounted to 11.5 nM; in assay [2] it was 160 nM.
For `COc1cc(F)c([C@@H]2CN(c3c(C)ccn([C@H]4COC[C@@H]4O)c3=O)C(=O)[C@H]2NC(=O)c2ccc(OC(F)F)cc2)c(F)c1` [Example 624], in that order: 1.5 nM and 9.3 nM.
For `COc1cc(F)c([C@@H]2CN(c3c(C)ccn(C4CCS(=O)(=O)CC4)c3=O)C(=O)[C@H]2NC(=O)c2ccc(OC(F)F)cc2)c(F)c1` [Example 626], the results for the concentration giving a half-maximal response (EC50) in assay [1] and in assay [2] were 0.7 nM and 13 nM, respectively.
On to `COc1cc(F)c([C@@H]2CN(c3c(C)ccn(C4CCS(=O)(=O)CC4)c3=O)C(=O)[C@H]2NC(=O)c2ccc(OC(F)(F)F)cc2)c(F)c1` [Example 627], for which the 50% effective concentration (EC50) in assay [1] was 8.6 nM; in assay [2], 2 nM.
Taken in the same sequence, the figures for `COc1cc(F)c([C@@H]2CN(c3nn(C4COC4)c(=O)cc3C)C(=O)[C@H]2NC(=O)c2ccc(OC(F)F)cc2)c(F)c1` [Example 628] were 4.7 nM and 59 nM.
Take `COc1cc(F)c([C@@H]2CN(c3cn(C)nc3OC)C(=O)[C@H]2NC(=O)c2ccc(Cl)cc2)c(F)c1` [Example 629]: the figures for the concentration for a half-maximal effect (EC50) in assay [1] and in assay [2] were 9.9 nM and 670 nM, respectively.
Regarding `COc1cc(F)c([C@@H]2CN(c3cn(C)nc3OC)C(=O)[C@H]2NC(=O)c2ccc(OC(F)F)cc2)c(F)c1` [Example 630], the figures for the 50% effective concentration (EC50) in assay [1] and in assay [2] were 5.2 nM and 1100 nM, respectively.
For the compound `COc1cc(F)c([C@@H]2CN(c3cn(C)nc3OC)C(=O)[C@H]2NC(=O)c2ccc(OC(F)(F)F)cc2)c(F)c1` [Example 631], the EC50 in assay [1] stood at 10 nM; in assay [2], 160 nM.
For `COc1ccc([C@@H]2CN(c3c(C)ccn(CC(F)F)c3=O)C(=O)[C@H]2NC(=O)c2ccc(OC(F)F)cc2)cc1` [Example 632], in that order: 0.9 nM and 3.7 nM.
For `COCCn1ccc(C)c(N2C[C@@H](c3c(F)cc(OC)cc3F)[C@H](NC(=O)c3ccc(Cl)cc3)C2=O)c1=O` [Example 633], in that order: 1.4 nM and 4.3 nM.
With `COc1cc(F)c([C@@H]2CN(c3c(C)ccn(CC(O)C(F)(F)F)c3=O)C(=O)[C@H]2NC(=O)c2ccc(OC(F)F)cc2)c(F)c1` (some centres unmarked) [Example 634], the EC50 is 2 nM in assay [1] and 2.3 nM in assay [2].
Regarding `COCCn1ccc(C)c(N2C[C@@H](c3ccc(OC)cc3F)[C@H](NC(=O)c3ccc(Cl)cc3)C2=O)c1=O` [Example 635], the concentration for a half-maximal effect (EC50) came to 3.7 nM in assay [1] and 6.3 nM in assay [2].
On to `COc1ccc([C@@H]2CN(c3c(C)ccn(CCO)c3=O)C(=O)[C@H]2NC(=O)c2ccc(OC(F)(F)F)cc2)c(F)c1` [Example 636], for which the results for the EC50 in assay [1] and in assay [2] were 1.6 nM and 3.2 nM, respectively.
Taken in the same sequence, the figures for `COc1cc(F)c([C@@H]2CN(c3c(C)ccn(C4COC4)c3=O)C(=O)[C@H]2NC(=O)c2ccc(OC(F)(F)F)cc2)c(F)c1` [Example 637] were 6.6 nM and 5.7 nM.
